pIC50: −log10 of the molar value. Where a name gives a salt, the structure may show the parent alone.
biological target: human recombinant 5-HT2C receptor (Homo sapiens (Human), UniProt P28335); settings: read-out: Binding affinity to serotonin receptor 5-HT2C: IC50
Sequence (P28335 whole entry, looked up): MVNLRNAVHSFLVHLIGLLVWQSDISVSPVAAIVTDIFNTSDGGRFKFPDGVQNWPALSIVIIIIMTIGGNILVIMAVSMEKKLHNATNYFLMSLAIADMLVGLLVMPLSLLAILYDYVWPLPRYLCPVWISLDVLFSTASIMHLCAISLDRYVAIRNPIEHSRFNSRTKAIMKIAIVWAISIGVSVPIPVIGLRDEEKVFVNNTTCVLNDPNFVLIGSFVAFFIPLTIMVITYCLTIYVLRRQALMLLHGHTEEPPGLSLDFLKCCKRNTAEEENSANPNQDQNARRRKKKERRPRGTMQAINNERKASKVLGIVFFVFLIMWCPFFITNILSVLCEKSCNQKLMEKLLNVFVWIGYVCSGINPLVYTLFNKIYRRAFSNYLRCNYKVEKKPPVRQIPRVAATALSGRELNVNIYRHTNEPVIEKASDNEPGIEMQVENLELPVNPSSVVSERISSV
Procedure: Receptor binding affinities of the compounds for serotonin receptors were measured by the method described in the literature [Park W K et al., Pharmacol Biochem Behay.
The binding affinity (IC50) of a compound for the receptor was calculated by computerized nonlinear regression analysis (GraphPad Prism Program, San Diego, USA) using 7-8 varied concentrations of the compound run in duplicate tubes.
Nonspecific binding was determined using 100 uM mianserin. The incubations were performed for 60 min at 27° C., and these were terminated by rapid filtration through filtermate A glass fiber filter presoaked in 0.5% PEI.

SMILES | pIC50
Cc1cccc(N2CCN(CCNC(=O)c3nc(C)n(-c4ccc(F)cc4)c3C)CC2)c1C [Example 114, N-(2-(4-(2,3-dimethylphenyl)piperazin-1-yl)ethyl)-1-(4-fluorophenyl)-2,5-dimethyl-1H-imidazole-4-carboxamide dihydrochloride] | 7.34
Cc1ccc(-n2c(C)nc(C(=O)NCCCN3CCN(c4cccc(C)c4C)CC3)c2C)cc1 [Example 147, N-(3-(4-(2,3-dimethylphenyl)piperazin-1-yl)propyl)-2,5-dimethyl-1-p-tolyl-1H-imidazole-4-carboxamide dihydrochloride] | 7.11
Cc1cccc(N2CCN(CC(O)CNC(=O)c3nc(-c4ccccc4)n(-c4ccccc4)c3C)CC2)c1C (stereo not shown) [Example 155, N-(3-(4-(2,3-dimethylphenyl)piperazin-1-yl)-2-hydroxypropyl)-5-methyl-1,2-diphenyl-1H-imidazole-4-carboxamide dihydrochloride] | 6.28
Cc1cccc(N2CCN(CCCNC(=O)c3nc(C)n(CC(C)C)c3C)CC2)c1C [Example 92, N-(3-(4-(2,3-dimethylphenyl)piperazin-1-yl)propyl)-1-isobutyl-2,5-dimethyl-1H-imidazole-4-carboxamide dihydrochloride] | 4.99
COc1cc(OC)cc(-n2c(C)nc(C(=O)NCCN3CCN(c4cccc(C)c4C)CC3)c2C)c1 [Example 112, 1-(3,5-dimethoxyphenyl)-N-(2-(4-(2,3-dimethylphenyl)piperazin-1-yl)ethyl)-2,5-dimethyl-1H-imidazole-4-carboxamide dihydrochloride] | 7.20
CCCc1nc(C(=O)NCCCN2CCN(c3cccc(Cl)c3Cl)CC2)c(C)n1-c1ccccc1 [Example 7, N-(3-(4-(2,3-dichlorophenyl)piperazin-1-yl)propyl)-5-methyl-1-phenyl-2-propyl-1H-imidazole-4-carboxamide dihydrochloride] | 6.72
COc1ccccc1-n1c(C)nc(C(=O)NCCCN2CCN(c3cccc(Cl)c3Cl)CC2)c1C [Example 145, N-(3-(4-(2,3-dichlorophenyl)piperazin-1-yl)propyl)-1-(2-methoxyphenyl)-2,5-dimethyl-1H-imidazole-4-carboxamide dihydrochloride] | 7.59
COc1ccc(-n2cc(C(=O)NCCCN3CCN(c4cccc(C)c4C)CC3)nc2-c2ccccc2)cc1 [Example 134, N-(3-(4-(2,3-dimethylphenyl)piperazin-1-yl)propyl)-1-(4-methoxyphenyl)-2-phenyl-1H-imidazole-4-carboxamide dihydrochloride] | 7.00
CCc1nc(C(=O)NCCN2CCN(c3cccc(Cl)c3Cl)CC2)c(C)n1-c1ccccc1 [Example 13, N-(2-(4-(2,3-dichlorophenyl)piperazin-1-yl)ethyl)-2-ethyl-5-methyl-1-phenyl-1H-imidazole-4-carboxamide] | 7.21
CCc1c(C(=O)NCCCN2CCN(c3cccc(Cl)c3Cl)CC2)nc(-c2ccc(Cl)cc2Cl)n1-c1ccc(Br)cc1 [Example 89, 1-(4-bromophenyl)-2-(2,4-dichlorophenyl)-N-(3-(4-(2,3-dichlorophenyl)piperazin-1-yl)propyl)-5-ethyl-1H-imidazole-4-carboxamide] | 6.50
CCCc1nc(C(=O)NCCCN2CCN(c3cccc(C)c3C)CC2)cn1-c1ccccc1 [Example 117, N-(3-(4-(2,3-dimethylphenyl)piperazin-1-yl)propyl)-1-phenyl-2-propyl-1H-imidazole-4-carboxamide dihydrochloride] | 6.99
Cc1ccc(-n2c(C)nc(C(=O)NCC(O)CN3CCN(c4cccc(C)c4C)CC3)c2C)cc1 (stereo not shown) [Example 148, N-(3-(4-(2,3-dimethylphenyl)piperazin-1-yl)-2-hydroxypropyl)-2,5-dimethyl-1-p-tolyl-1H-imidazole-4-carboxamide dihydrochloride] | 6.15
CCCc1nc(C(=O)NCC(O)CN2CCN(c3cccc(C)c3C)CC2)cn1-c1ccc(Cl)cc1 (stereo not shown) [Example 111, 1-(4-chlorophenyl)-N-(3-(4-(2,3-dimethylphenyl)piperazin-1-yl)-2-hydroxypropyl)-2-propyl-1H-imidazole-4-carboxamide dihydrochloride] | 6.18
Cc1cccc(N2CCN(CCNC(=O)c3nc(C)n(-c4ccc5c(c4)OCO5)c3C)CC2)c1C [Example 115, 1-(benzo[d][1,3]dioxol-5-yl)-N-(2-(4-(2,3-dimethylphenyl)piperazin-1-yl)ethyl)-2,5-dimethyl-1H-imidazole-4-carboxamide dihydrochloride] | 7.57
CCCc1nc(C(=O)NCC(O)CN2CCN(c3cccc(C)c3C)CC2)cn1-c1ccccc1 (stereo not shown) [Example 121, N-(3-(4-(2,3-dimethylphenyl)piperazin-1-yl)-2-hydroxypropyl)-1-phenyl-2-propyl-1H-imidazole-4-carboxamide dihydrochloride] | 6.20
CCCn1c(C)nc(C(=O)NCC(O)CN2CCN(c3cccc(C)c3C)CC2)c1C (stereo not shown) [Example 96, N-(3-(4-(2,3-dimethylphenyl)piperazin-1-yl)-2-hydroxypropyl)-2,5-dimethyl-1-propyl-1H-imidazole-4-carboxamide dihydrochloride] | < 5.00
COc1ccccc1-n1c(C)nc(C(=O)NCC(O)CN2CCN(c3cccc(C)c3C)CC2)c1C (stereo not shown) [Example 100, N-(3-(4-(2,3-dimethylphenyl)piperazin-1-yl)-2-hydroxypropyl)-1-(2-methoxyphenyl)-2,5-dimethyl-1H-imidazole-4-carboxamide dihydrochloride] | 6.68
Cc1cccc(N2CCN(CC(O)CNC(=O)c3nc(C)n(CC(C)C)c3C)CC2)c1C (stereo not shown) [Example 94, N-(3-(4-(2,3-dimethylphenyl)piperazin-1-yl)-2-hydroxypropyl)-1-isobutyl-2,5-dimethyl-1H-imidazole-4-carboxamide dihydrochloride] | 6.23
Cc1nc(C(=O)NCCCN2CCN(c3cccc(Cl)c3Cl)CC2)c(C)n1-c1ccccc1 [Example 6, N-(3-(4-(2,3-dichlorophenyl)piperazin-1-yl)propyl)-2,5-dimethyl-1-phenyl-1H-imidazole-4-carboxamide] | 7.92
